Tested on: synaptic SNARE-complex
Assay: SNARE-complex assembly in primary neurons (Syb-2 immunoprecipitation, co-IP of Synt-1 and SNAP-25)
Assay type: cell-based, mice
Settings: CSPα^L115R and CSPα^L116Δ expressing neurons; 200 μM, 72 h; compared to vehicle only; FIG. 3E
Text: For the experiments shown in FIGS. 3A-3E, primary cortical neurons from neonatal CSPα^−/− mice were infected with lentiviruses expressing Myc-tagged CSPα^WT, CSPα^L115R, CSPα^L116Δ, SSPα, or empty lentivirus (Control) on 7 days in vitro (DIV) and examined on 17 DIV. […] The lentivirus infected cells were stained using antibodies against Myc (green), somatodendritic marker MAP2 (red), and counterstained with nuclear stain DAPI (blue). […] Immunoprecipitation (IP) for SNAP-25 was followed by quantitative immunoblotting of the co-immunoprecipitated (co-IP'd) CSPα (top blot), and normalized to the IP'd SNAP-25 (bottom blot). IP: Control=sham IP without IgG. Palm=palmitoylated. […] N.D.=not detected. […] Immunoprecipitation using anti-synaptobrevin-2 (Syb-2) antibody was followed by quantitative immunoblotting of co-IP'd SNARE-complex partners syntaxin-1 (Synt-1) and SNAP-25. […] Cell extracts were separated by SDS-PAGE, and subjected to quantitative immunoblotting using anti-SNAP-25 antibody and β-actin for normalization. To measure palmitoylation, oligomers were disrupted by lysing neurons in 0.1 N HCl plus 0.1% Triton X-100 for 20 min at 4° C., followed by SDS-PAGE and quantitative immunoblotting against CSPα. […] FIG. 3D (right panel) show quantitation of oligomers, palmitoylated CSPα, respectively, in corresponding lane and expressed as a percentage of total. […]

Row | SMILES | level of co-immunoprecipitated Synt-1 and SNAP-25 (SNARE-complex assembly)
1 | CC(=O)N(O)CCCCCNC(=O)CCC(=O)N(O)CCCCCNC(=O)CCC(=O)N(O)CCCCCN [Dfx, N′-[5-(Acetyl-hydroxy-amino)pentyl]-N-[5-[3-(5-aminopentyl-hydroxy-carbamoyl)propanoylamino]pentyl]-N-hydroxy-butane diamide] | increased level
2 | Cc1c(O)c(=O)ccn1C [L1, 3-hydroxy-1,2-dimethyl-4(1H)-pyridone] | increased level
